{"source": "patent US10413535B2", "about": "“Pharmaceutical compositions comprising an integrin ALPHA4 antagonist for use in treating ocular inflammatory conditions” (AXEROVISION, INC., priority 2015, dated 2019)", "key": {"Rat α4β1": {"molecular_target": "T1, Rat α4β1 (Rattus norvegicus, UniProt D3ZMQ3+P49134)", "T1 construct": "rat RBL-2H3 cells which express rat α4β1; endogenous in cells; host or cells: RBL-2H3 cells (rat basophilic cell line)", "T1 sequence (D3ZMQ3 1-1036)": "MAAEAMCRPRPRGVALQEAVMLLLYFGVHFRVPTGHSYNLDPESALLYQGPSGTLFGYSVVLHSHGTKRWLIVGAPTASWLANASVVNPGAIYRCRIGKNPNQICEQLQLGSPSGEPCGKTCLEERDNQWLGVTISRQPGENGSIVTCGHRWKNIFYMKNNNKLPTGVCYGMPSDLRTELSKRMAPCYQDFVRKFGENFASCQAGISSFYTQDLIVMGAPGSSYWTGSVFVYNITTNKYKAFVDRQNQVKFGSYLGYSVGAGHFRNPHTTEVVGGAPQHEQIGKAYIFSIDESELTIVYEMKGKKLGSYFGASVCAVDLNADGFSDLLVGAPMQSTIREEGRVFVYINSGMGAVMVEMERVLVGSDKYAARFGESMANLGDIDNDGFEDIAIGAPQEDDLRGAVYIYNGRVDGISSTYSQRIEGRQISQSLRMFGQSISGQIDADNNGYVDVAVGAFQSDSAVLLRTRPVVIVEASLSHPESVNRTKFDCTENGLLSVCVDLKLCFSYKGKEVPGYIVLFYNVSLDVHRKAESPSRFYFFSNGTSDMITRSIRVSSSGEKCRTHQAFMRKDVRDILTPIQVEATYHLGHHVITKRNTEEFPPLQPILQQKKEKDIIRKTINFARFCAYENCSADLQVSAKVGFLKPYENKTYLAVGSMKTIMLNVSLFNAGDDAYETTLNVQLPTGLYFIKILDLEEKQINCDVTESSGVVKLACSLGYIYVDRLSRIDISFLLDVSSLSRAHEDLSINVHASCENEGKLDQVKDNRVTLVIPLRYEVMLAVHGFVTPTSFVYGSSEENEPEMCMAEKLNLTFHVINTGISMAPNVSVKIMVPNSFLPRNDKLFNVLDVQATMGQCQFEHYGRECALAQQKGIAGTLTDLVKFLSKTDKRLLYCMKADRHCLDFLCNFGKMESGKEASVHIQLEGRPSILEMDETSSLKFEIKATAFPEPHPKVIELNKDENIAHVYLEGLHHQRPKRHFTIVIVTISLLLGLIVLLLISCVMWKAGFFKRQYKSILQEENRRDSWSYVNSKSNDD", "T1 sequence (P49134 21-799)": "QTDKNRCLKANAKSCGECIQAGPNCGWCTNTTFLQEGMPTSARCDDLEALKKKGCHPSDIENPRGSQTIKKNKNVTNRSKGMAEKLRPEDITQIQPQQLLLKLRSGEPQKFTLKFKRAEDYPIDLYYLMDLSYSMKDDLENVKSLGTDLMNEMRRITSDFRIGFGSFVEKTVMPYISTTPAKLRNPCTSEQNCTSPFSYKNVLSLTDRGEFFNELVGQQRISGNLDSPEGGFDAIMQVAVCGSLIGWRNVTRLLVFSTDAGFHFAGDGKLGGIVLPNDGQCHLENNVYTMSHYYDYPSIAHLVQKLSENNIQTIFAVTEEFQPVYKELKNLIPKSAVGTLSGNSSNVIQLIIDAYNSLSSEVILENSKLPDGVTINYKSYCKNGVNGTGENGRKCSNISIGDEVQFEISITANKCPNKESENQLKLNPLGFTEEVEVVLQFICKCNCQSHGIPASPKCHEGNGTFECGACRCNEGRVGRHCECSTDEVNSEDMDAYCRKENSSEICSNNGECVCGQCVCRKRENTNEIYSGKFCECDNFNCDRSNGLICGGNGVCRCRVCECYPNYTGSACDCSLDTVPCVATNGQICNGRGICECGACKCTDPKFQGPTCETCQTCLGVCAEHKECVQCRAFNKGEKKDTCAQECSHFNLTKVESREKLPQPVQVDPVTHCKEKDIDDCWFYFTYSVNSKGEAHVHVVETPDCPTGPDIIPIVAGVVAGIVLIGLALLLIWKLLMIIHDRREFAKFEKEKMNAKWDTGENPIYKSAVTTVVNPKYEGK", "test": "Saturation binding assay in RBL-2H3 cells (SPA)", "settings": "[3H]GW559090, RBL-2H3 cells", "protocol": "(§1) Jurkat J6 cells (human lymphoblast cell line) were grown as a suspension culture in RPMI 1640 supplemented with FCS (10%) and glutamine (2 mM). RPMI8866 cells (human B lymphoid cell line) were grown as a suspension culture in RPMI 1640 supplemented with FCS (10%) and glutamine (2 mM). RBL-2H3 cells (rat basophilic cell line) were cultured in Eagle's MEM plus Earles salts supplemented with 2 mM L-glutamine, 1 mM sodium pyruvate, 1× non-essential amino acids, 1 mM Na pyruvate 10% heat inactivated foetal calf serum.\nThe assay buffer contained 50 mM HEPES, 100 mM NaCl, 1 mM MnCl2, pH 7.5 (with NaOH). WGA SPA beads were used at 1 mg/well. Cells were harvested and resuspended in assay buffer and 1 million cells were added per well in a white bottomed plate. Cold GW559090 to give a final assay concentration of 20 μM (to define nonspecific binding) or buffer alone were added and then [3H] GW559090 across a concentration range across the plate was added (nominal [3H] GW559090 concentration range was 0.01 to 200 nM). The final assay volume was 250 μL. The plate was then incubated at 37° C. for 2 h. Disintegrations were counted by scintillation (from the WGA SPA beads) in a Wallac Microbeta plate reader.\nThe actual amount of [3H] GW559090 added for each concentration of the saturation curve was measured by counting disintegrations per minute from a 50 μL aliquot of the label dilution range."}, "integrin α4": {"molecular_target": "T2, integrin α4 (Homo sapiens, UniProt P13612)", "T2 sequence (P13612 34-1032)": "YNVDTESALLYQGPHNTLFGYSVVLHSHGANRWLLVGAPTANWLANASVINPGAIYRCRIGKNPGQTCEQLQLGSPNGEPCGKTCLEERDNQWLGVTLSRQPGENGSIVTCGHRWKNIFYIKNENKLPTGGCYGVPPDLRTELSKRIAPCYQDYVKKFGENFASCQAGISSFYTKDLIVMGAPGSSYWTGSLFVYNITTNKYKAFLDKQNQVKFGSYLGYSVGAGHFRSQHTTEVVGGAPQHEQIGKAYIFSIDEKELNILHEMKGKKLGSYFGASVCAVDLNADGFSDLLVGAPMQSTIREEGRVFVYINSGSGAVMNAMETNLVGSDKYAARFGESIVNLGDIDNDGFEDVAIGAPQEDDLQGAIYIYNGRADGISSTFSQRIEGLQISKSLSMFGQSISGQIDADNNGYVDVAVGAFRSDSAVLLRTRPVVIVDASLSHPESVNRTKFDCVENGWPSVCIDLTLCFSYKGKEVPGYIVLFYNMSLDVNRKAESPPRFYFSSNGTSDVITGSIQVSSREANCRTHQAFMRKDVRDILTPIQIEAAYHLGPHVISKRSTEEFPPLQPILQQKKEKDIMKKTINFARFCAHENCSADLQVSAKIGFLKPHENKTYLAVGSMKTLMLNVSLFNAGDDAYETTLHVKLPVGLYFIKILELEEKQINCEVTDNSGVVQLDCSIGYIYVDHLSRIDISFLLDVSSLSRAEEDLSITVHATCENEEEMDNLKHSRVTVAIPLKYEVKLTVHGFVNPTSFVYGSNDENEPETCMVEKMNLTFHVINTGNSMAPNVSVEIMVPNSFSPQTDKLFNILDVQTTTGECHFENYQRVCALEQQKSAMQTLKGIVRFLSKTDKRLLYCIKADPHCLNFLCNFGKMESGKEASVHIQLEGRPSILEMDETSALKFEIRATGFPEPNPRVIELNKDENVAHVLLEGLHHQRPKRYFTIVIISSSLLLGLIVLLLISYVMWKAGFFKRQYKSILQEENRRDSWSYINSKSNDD", "test": "IC50/IC90 concentrations and required tissue levels quoted in FIG. 6 legend"}, "Human α4β1": {"molecular_target": "T3, Human α4β1 (Homo sapiens, UniProt P05556+P13612)", "T3 construct": "characterized in human J6 cells which express VLA-4; endogenous in cells; host or cells: Jurkat J6 cells (human lymphoblast cell line)", "T3 sequence (P05556 21-798, one chain of several)": "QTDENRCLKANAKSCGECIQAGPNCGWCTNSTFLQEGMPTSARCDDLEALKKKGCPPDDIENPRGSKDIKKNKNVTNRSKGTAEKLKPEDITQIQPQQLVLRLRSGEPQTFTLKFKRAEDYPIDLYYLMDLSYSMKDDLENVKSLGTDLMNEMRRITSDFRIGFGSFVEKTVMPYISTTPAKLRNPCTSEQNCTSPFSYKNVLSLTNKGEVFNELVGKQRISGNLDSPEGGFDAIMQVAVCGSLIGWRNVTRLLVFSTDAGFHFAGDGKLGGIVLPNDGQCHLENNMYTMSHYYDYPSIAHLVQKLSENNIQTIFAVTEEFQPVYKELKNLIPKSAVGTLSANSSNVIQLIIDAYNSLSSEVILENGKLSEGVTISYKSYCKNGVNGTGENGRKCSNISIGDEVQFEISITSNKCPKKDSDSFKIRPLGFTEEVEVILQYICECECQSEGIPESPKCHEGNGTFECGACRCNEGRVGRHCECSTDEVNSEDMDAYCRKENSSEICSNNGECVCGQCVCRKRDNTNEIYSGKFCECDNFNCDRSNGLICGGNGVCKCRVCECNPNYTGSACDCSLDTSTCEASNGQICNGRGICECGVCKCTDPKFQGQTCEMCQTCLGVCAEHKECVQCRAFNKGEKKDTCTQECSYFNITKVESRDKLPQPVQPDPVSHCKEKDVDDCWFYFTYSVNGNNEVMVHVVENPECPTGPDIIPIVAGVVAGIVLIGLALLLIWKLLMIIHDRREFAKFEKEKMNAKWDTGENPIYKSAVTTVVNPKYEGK", "test": "J6 saturation binding assay (filtration) with [3H]GW559090", "settings": "[3H]GW559090, J6 cells; geometric mean and 95% CL, 4 experiments", "protocol": "as §1\nBinding of the compound of formula I was characterized in human J6 cells which express VLA-4. J6 cells were harvested by centrifugation for 5 minutes at 500 g and resuspended in assay buffer (50 mM HEPES, pH 7.5, 100 mM NaCl, 2 mM glucose, 1 mM MnCl2). Each well contained 1×10^6 cells and either 10 μM cold GW559090, to define the NSBs (non-specific binding), or buffer. […] Bound [3H]GW559090 was separated from free by rapid vacuum filtration through pre-soaked Whatman GF/B filters, followed by three washes in ice-cold buffer, scintillant was then added to filter discs and disintegrations per minute measured on a Beckman Scintillation counter. […] GW559090 added for each concentration of the saturation curve was measured by counting disintegrations from a 50 μL aliquot of the label dilution range."}}, "note": "Several values for one entry are separate records, joined by “and”; a condition that tells them apart may be missing. Equal values may be shown once. Read-outs that look alike come from different tables or passages of the source."}
{"compound": "Cc1ccccc1OCC(=O)N[C@@H](CC(C)C)C(=O)N[C@@H](Cc1ccc(OC(=O)N2CCC(C(N)=O)CC2)cc1)C(=O)O", "note": "[GW559090, (2S)-3-[4-({[4-(Aminocarbonyl)-1-piperidinyl]carbonyl}oxy)phenyl]-2-[((2S)-4-methyl-2-{[2-(2-methylphenoxy)acetyl]amino}pentanoyl)amino]propanoic acid]", "values": [{"measurement": "Kd", "setting": "Rat α4β1", "value": 1.04, "unit": "nM"}, {"measurement": "IC50", "setting": "integrin α4; FIG. 6 legend, read-out: 1050 concentration (converted)", "value": "~8 nM and ~8.38 nM"}, {"measurement": "IC90", "setting": "integrin α4; FIG. 6 legend, read-out: IC90 concentration", "value": "~80 nM and ~0.048 µg/mL"}, {"measurement": "Approximate tissue level required to achieve the 1050 concentration", "setting": "integrin α4; if protein binding is 98%", "value": "~400 nM and ~240 ng/mL"}, {"measurement": "IC90", "setting": "integrin α4; if protein binding is 98%, read-out: Approximate tissue level required to achieve the IC90 concentration", "value": "~4 µM and ~2.4 µg/mL"}, {"measurement": "Kd", "setting": "Human α4β1", "value": 0.19, "unit": "nM"}]}
